From patent US8772463B2, “Fluorescent dye-labeled glucose bioprobe, synthesis method and usage thereof” (SNU R&DB Foundation, priority 2007, dated 2014)

Columns and labels:
A549 cells = test: Direct competition of Cy3-Glc-α uptake with D-glucose / L-glucose; format: cell-based, human; conditions: 37° C.
Experimental: 1×10^4 cells were cultured on a Lab-Tek glass chamber slide (Nalge Nunc International, Naperville, Ind., USA) in 35 mm cell culture dish. After 24 h, the cells were treated for each experimental purpose. Then, the medium was replaced with RPMI 1640 medium containing 12.5 μM of Cy3-Glc-α. The cells were exposed to Cy3-Glc-α for 40 min, then washed with PBS 3 times. Finally, the glass chamber slide was taken from culture dish and loaded on the fluorescence microscope (Axiovert 200, Carl Zeiss, Germany). Fluorescence images of 35-50 cells were taken by CCD camera (Axiocam MRm, Germany) and fluorescence intensity of each cell was measured by Axiovision (program for data analysis). An area as ROIs (regions of interest) which contains a cell in phase-contrast image was drawn using Axiovision. Axiovision analyzed CCD camera images and provided the digitized mean of fluorescence intensity in the ROIs that the present inventors had established. The present inventors subtracted the background intensity from the fluorescence intensity to get the fluorescence intensity value that a cell contained. With the method described above, the present inventors digitized fluorescence intensity and performed various experiments. […]

NIH/3T3 cells = test: FACS-based flow cytometric analysis of probe uptake with/without 11 mM D-glucose; format: cell-based, murine; conditions: probe 5 μM; glucose-depleted condition normalized to 100
Experimental: FACS (Fluorescence Activated Cell Sorting)-based flow cytometric analysis was used to compare cellular uptake efficiency in NIH/3T3 cells among the glucose probe [2-(N-Cy3-piperazinoethyl)]-α-D-glucose (GB2-Cy3), synthesized in Example 2, the conventional fluorescent glucose probe 2-NBDG and the glucose probe Cy3-Glc-α, synthesized in Example 1.
NIH/3T3 cells were cultured on 10 cm cell culture dishes and transferred in a volume of 3×10^5 cells into each FACS tube (5 mL, BD). They were washed once with cold PBS before incubation at 37° C. for 30 min in 11 mM D-glucose-containing PBS or glucose-free PBS in the presence of the bioprobe [GB2-Cy3 (5 μM), 2-NBDG (5 μM or 50 μM) or Cy3-Glc-α (5 μM)]. Cells that were incubated without the bioprobes were used as a negative control. After being washed with cold PBS, 1×10^4 NIH/3T3 cells were analyzed on FACSCalibur™ (FACS-based flow cytometer). GBs-Cy3 was detected by FL2 channels. Raw data of 1×10^4 cells are shown in histograms, with the mean values thereof given in the graph of FIG. 21.

**Q.** Which results are given for `C[N+]1=C(/C=C/C=C2/N(CCCCC(=O)NCCOCCOCCNCCOC3OC(CO)C(O)C(O)C3O)c3ccccc3C2(C)C)C(C)(C)c2ccccc21` [Cy3-Glc-α, [2-(N-Cy3-3,6-dioxaoctane-1,8-diaminoethyl)]-α-D-glucose]?
**A.** uptake versus L-glucose in the medium (A549 cells; 50 mM L-glucose): not influenced by the concentration of L-glucose; uptake versus concentration of D-glucose in the medium (A549 cells; RPMI 1640 lacking glucose, 10 mM or 50 mM D-glucose): decreased as the concentration of D-glucose in the medium increased; reduction in cellular uptake due to 11 mM D-glucose (NIH/3T3 cells): about 50%
